Measured values as given in the SangsterLogP compilation.

Test: method code SF-HPLC, from Marrel, C.; Boss, G.; Van, H.; Testa, B.; Cooper, D.; Jenner, P.; Marsden, C. (1985). L-DOPA esters as potential prodrugs. Part. I. Physicochemical properties. Eur J Med Chem, 20(5)459-465.
Conditions: for logD: pH 7.4

Compound | logP | logD
N[C@@H](Cc1ccc(O)c(O)c1)C(=O)OCC1CCCCO1 (stereo not given in full) | 0.47 | 
N[C@@H](Cc1ccc(O)c(O)c1)C(=O)OC1CCCCC1 |  | 1.53
N[C@@H](Cc1ccc(O)c(O)c1)C(=O)OCCc1ccccc1 |  | 1.57
COc1ccc(CCOC(=O)[C@@H](N)Cc2ccc(O)c(O)c2)cc1 |  | 1.5
CCCOC(=O)[C@@H](N)Cc1ccc(O)c(O)c1 |  | 0.55
N[C@@H](Cc1ccc(O)c(O)c1)C(=O)OCCc1ccc(Cl)cc1 |  | 2.12
CCOC(=O)[C@@H](N)Cc1ccc(O)c(O)c1 |  | 0.01
CC(O)COC(=O)[C@@H](N)Cc1ccc(O)c(O)c1 (stereo not given in full) | -0.49 | 
N[C@@H](Cc1ccc(O)c(O)c1)C(=O)OCCOc1ccccc1 |  | 1.35
COCC(C)OC(=O)[C@@H](N)Cc1ccc(O)c(O)c1 (stereo not given in full) | 0.08 | 
